Experimental data: patent publication US9468661B2, “Pyrrolidine derivatives and their use as complement pathway modulators” (priority 2012, dated 2016)

These compounds were tested against human factor D (Homo sapiens (Human), UniProt P00746) (assay: biochemical). Conditions: Factor D inhibition data using Method 1; recombinant human factor D 10 nM, substrate Z-Lys-thiobenzyl, fluorescence; read-out: IC50.
Sequence of human factor D (P00746 26-253): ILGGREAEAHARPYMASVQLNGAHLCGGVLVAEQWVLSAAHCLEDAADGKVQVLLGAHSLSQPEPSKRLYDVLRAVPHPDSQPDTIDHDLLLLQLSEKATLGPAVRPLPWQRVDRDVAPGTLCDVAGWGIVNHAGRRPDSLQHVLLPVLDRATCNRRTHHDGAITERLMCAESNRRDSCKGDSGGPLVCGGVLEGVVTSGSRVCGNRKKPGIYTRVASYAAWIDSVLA
Format: biochemical
Procedure: Human Complement Factor D Assay: Method 1
Recombinant human factor D (expressed in E. coli and purified using standard methods) at 10 nM concentration is incubated with test compound at various concentrations for 1 hour at room temperature in 0.1 M Hepes buffer, pH 7.5, containing 1 mM MgCl2, 1 M NaCl and 0.05% CHAPS. A synthetic substrate Z-Lys-thiobenzyl and 2,4-dinitrobenzenesulfonyl-fluoresceine are added to final concentrations of 200 μM and 25 μM, respectively. The increase in fluorescence is recorded at excitation of 485 nm and emission at 535 nm in a microplate spectrofluorimeter. IC50 values are calculated from percentage of inhibition of complement factor D-activity as a function of test compound concentration.
Work on `CCC1(CC)CC1CNC(=O)[C@@H]1C[C@H]2C[C@H]2N1C(=O)Cn1nc(C(C)=O)c2cccnc21` (stereo partly drawn) [Example 10, (1R,3S,5R)-2-[2-(3-Acetyl-pyrazolo[3,4-b]pyridin-1-yl)-acetyl]-2-aza-bicyclo[3.1.0] hexane-3-carboxylic acid (2,2-diethyl-cyclopropylmethyl)-amide] yielded an IC50 of 1420 nM.
With `CC1(C)[C@@H](CNC(=O)[C@@H]2C[C@H]3C[C@H]3N2C(=O)Cn2nc(C(N)=O)c3ccncc32)C1(Cl)Cl` [Example 101, 1-(2-{(1R,3S,5R)-3-[((S)-2,2-Dichloro-3,3-dimethyl-cyclopropylmethyl)-carbamoyl]-2-aza-bicyclo[3.1.0]hex-2-yl}-2-oxo-ethyl)-1H-pyrazolo[3,4-c]pyridine-3-carboxylic acid amide] the IC50 was 297 nM.
`NC(=O)c1nn(CC(=O)N2[C@@H]3C[C@@H]3C[C@H]2C(=O)NC[C@H]2CC2(Cl)Cl)c2ccc(F)cc12` [Example 98, 1-(2-{(1R,3S,5R)-3-[((R)-2,2-Dichloro-cyclopropylmethyl)-carbamoyl]-2-aza-bicyclo[3.1.0]hex-2-yl}-2-oxo-ethyl)-5-fluoro-1H-indazole-3-carboxylic acid amide] showed an IC50 of 248 nM.
Work on `NC(=O)c1nn(CC(=O)N2[C@@H]3C[C@@H]3C[C@H]2C(=O)NC[C@H]2CC2(Cl)Cl)c2ccc(OCc3ncccn3)cc12` [Example 110, 1-(2-{(1R,3S,5R)-3-[((R)-2,2-Dichloro-cyclopropylmethyl)-carbamoyl]-2-aza-bicyclo [3.1.0]hex-2-yl}-2-oxo-ethyl)-5-(pyrimidin-2-ylmethoxy)-1H-indazole-3-carboxylic acid amide] yielded an IC50 of 41 nM.
Work on `CC(=O)c1nn(CC(=O)N2[C@@H]3C[C@@H]3C[C@H]2C(=O)NC[C@H]2C(C)(C)C2(Cl)Cl)c2ccc(OCc3ncccn3)cc12` [Example 104, (1R,3S,5R)-2-{2-[3-Acetyl-5-(pyrimidin-2-ylmethoxy)-indazol-1-yl]-acetyl}-2-aza-bicyclo[3.1.0] hexane-3-carboxylic acid ((R)-2,2-dichloro-3,3-dimethyl-cyclopropylmethyl)-amide] yielded an IC50 of 16 nM.
In the case of `C[C@@H](NC(=O)[C@@H]1C[C@@]2(CO)C[C@H]2N1C(=O)Cn1nc(C(N)=O)c2ccccc21)[C@H]1CC1(Cl)Cl` [Example 57, 1-(2-{(1R,3S,5S)-3-[(R)-1-((R)-2,2-Dichloro-cyclopropyl)-ethylcarbamoyl]-5-hydroxymethyl-2-aza-bicyclo[3.1.0]hex-2-yl}-2-oxo-ethyl)-1H-indazole-3-carboxylic acid amide], the IC50 is reported as 17 nM.
In the case of `NC(=O)c1nn(CC(=O)N2[C@@H]3C[C@@H]3C[C@H]2C(=O)NC[C@@H]2CC2(Cl)Cl)c2cnccc12` [Example 71, 1-(2-{(1R,3S,5R)-3-[((S)-2,2-Dichloro-cyclopropylmethyl)-carbamoyl]-2-aza-bicyclo[3.1.0]hex-2-yl}-2-oxo-ethyl)-1H-pyrazolo[3,4-c]pyridine-3-carboxylic acid amide], the IC50 is reported as 136 nM.

Same assay, conditions: IC50, Factor D inhibition data using Method 1; recombinant human factor D 10 nM, substrate Z-Lys-thiobenzyl, fluorescence
In the case of `CC(=O)c1nn(CC(=O)N2[C@@H]3C[C@@H]3C[C@H]2C(=O)NC(C)C2CC2(Cl)Cl)c2ccc(OCc3ncccn3)cc12` (single isomer, unassigned; dia 4) [Example 35], the IC50 is reported as 324 nM.
`CC1C(CNC(=O)[C@@H]2C[C@H]3C[C@H]3N2C(=O)Cn2nc(C(N)=O)c3ccccc32)C1(Cl)Cl` (single isomer, unassigned; dia 2) [Example 74, 1-(2-{(1R,3S,5R)-3-[((1R,3R) or (1S,3S)-2,2-Dichloro-3-methyl-cyclopropylmethyl)-carbamoyl]-2-aza-bicyclo[3.1.0]hex-2-yl}-2-oxo-ethyl)-1H-indazole-3-carboxylic acid amide-Dia 2] was tested, and the IC50 was 12 nM.
`NC(=O)c1nn(CC(=O)N2[C@@H]3C[C@@H]3C[C@H]2C(=O)NC(CO)C2CC2(Cl)Cl)c2ccccc12` (single isomer, unassigned; dia 1) [Example 23] gave an IC50 of 1610 nM.
